System: C57BL/6 male mice
Test: In vivo delivery study of lipid nucleic acid mixture (oral gavage, RT-qPCR of PGY-sRNA-26 in tissues)
Parameters: species or system mouse
Settings: for oral delivery of single-stranded sRNA nucleic acids into mouse blood / oral delivery of single-stranded sRNA nucleic acids into mouse brain tissue / oral delivery of single-stranded sRNA nucleic acids into mouse femur / oral delivery of single-stranded sRNA nucleic acids into mouse heart tissue / oral delivery of single-stranded sRNA nucleic acids into mouse intestinal tissue / oral delivery of single-stranded sRNA nucleic acids into mouse liver tissue / oral delivery of single-stranded sRNA nucleic acids into mouse lung tissue / oral delivery of single-stranded sRNA nucleic acids into mouse spleen tissue / oral delivery of single-stranded sRNA nucleic acids into mouse kidney tissue / oral delivery of single-stranded sRNA nucleic acids into mouse stomach tissue / oral delivery of single-stranded sRNA nucleic acids into mouse pancreatic tissue: 100 μg lipid:10 nmol PGY-sRNA-26, sampled after 12 hours; for oral delivery of single-stranded sRNA nucleic acids into mouse heart tissue: vs free uptake group; for oral delivery of single-stranded sRNA nucleic acids into mouse intestinal tissue: intestine; for overall delivery efficacy: delivering nucleic acids into each tissue and blood tested: 100 μg lipid:10 nmol PGY-sRNA-26, all tissues and blood tested; for oral delivery of single-stranded sRNA nucleic acids into mouse pancreatic tissue: pancreas
Method in brief: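 Stem-loop RT and SYBR qPCR, normalized to U6, measured PGY-sRNA-26 in blood and organs 12 h after gavage. Dosing was 10 nmol sRNA with 100 μg lipid, pre-mixed and heated 15 min at 90 °C, in 12-h-fasted mice, against saline and free-sRNA groups.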

SMILES | oral delivery of single-stranded sRNA nucleic acids into mouse blood | oral delivery of single-stranded sRNA nucleic acids into mouse brain tissue | oral delivery of single-stranded sRNA nucleic acids into mouse femur | oral delivery of single-stranded sRNA nucleic acids into mouse heart tissue | oral delivery of single-stranded sRNA nucleic acids into mouse intestinal tissue | oral delivery of single-stranded sRNA nucleic acids into mouse liver tissue | oral delivery of single-stranded sRNA nucleic acids into mouse lung tissue | oral delivery of single-stranded sRNA nucleic acids into mouse spleen tissue | overall delivery efficacy: delivering nucleic acids into each tissue and blood tested | oral delivery of single-stranded sRNA nucleic acids into mouse kidney tissue | oral delivery of single-stranded sRNA nucleic acids into mouse stomach tissue | oral delivery of single-stranded sRNA nucleic acids into mouse pancreatic tissue
CCCCCCOC(=O)CCC [Lipid 614, hexyl butanoate] | can effectively orally deliver | can effectively orally deliver | can effectively orally deliver | can effectively orally deliver | can effectively orally deliver | can effectively orally deliver | can effectively orally deliver | can effectively orally deliver |  |  |  | 
CCCCCCCCC(C)=O [Lipid 604, decan-2-one] | can effectively orally deliver | can effectively orally deliver | can effectively orally deliver | can effectively orally deliver | can effectively orally deliver | can effectively orally deliver | can effectively orally deliver | can effectively orally deliver | best delivery efficacy | can effectively orally deliver | can effectively orally deliver | 
NCCCCCC(=O)NCCCCCC(=O)O [Lipid 522, 6-(6-aminohexanoylamino)hexanoic acid] | can effectively orally deliver |  |  | can effectively orally deliver | can effectively orally deliver |  | can effectively orally deliver | can effectively orally deliver |  |  | can effectively orally deliver | 
CCCCCC/C=C\CCCCCCCC(=O)OCCCCCCCCCCCCCCCCCCCCC [Lipid 820, henicosyl (Z)-hexadec-9-enoate] | can effectively orally deliver | can effectively orally deliver | can effectively orally deliver | can effectively orally deliver | can effectively orally deliver | can effectively orally deliver | can effectively orally deliver | can effectively orally deliver |  | can effectively orally deliver | can effectively orally deliver | can effectively orally deliver
CCCCC/C=C\C/C=C\C/C=C\C/C=C\CCCCCC(=O)O [Lipid 520, (7Z,10Z,13Z,16Z)-docosa-7,10,13,16-tetraenoic acid] |  | can effectively orally deliver |  | can effectively orally deliver |  | can effectively orally deliver | can effectively orally deliver | can effectively orally deliver |  |  |  | 
CCCCCCCC/C=C/CCCCCCCCO [Lipid 600, (E)-octadec-9-en-1-ol] | can effectively orally deliver | can effectively orally deliver | can effectively orally deliver | can effectively orally deliver | can effectively orally deliver | can effectively orally deliver | can effectively orally deliver | can effectively orally deliver | best delivery efficacy | can effectively orally deliver | can effectively orally deliver | 
CCCCCCCCCCCCCCCCCC(=O)N[C@@H](Cc1ccccc1)C(=O)O [Lipid 830, (2S)-2-(octadecanoylamino)-3-phenylpropanoic acid] | can effectively orally deliver | can effectively orally deliver | can effectively orally deliver | can effectively orally deliver | can effectively orally deliver | can effectively orally deliver | can effectively orally deliver | can effectively orally deliver |  | can effectively orally deliver | can effectively orally deliver | can effectively orally deliver
CCCCCCCCCCCCCC(C)=O [Lipid 593, pentadecan-2-one] | can effectively orally deliver | can effectively orally deliver | can effectively orally deliver | can effectively orally deliver | can effectively orally deliver | can effectively orally deliver | can effectively orally deliver | can effectively orally deliver | best delivery efficacy | can effectively orally deliver | can effectively orally deliver | 
CCCCCCCCCCCCCCCCCC(N)=O [Lipid 601, octadecanamide] | can effectively orally deliver | can effectively orally deliver | can effectively orally deliver | can effectively orally deliver | can effectively orally deliver | can effectively orally deliver | can effectively orally deliver | can effectively orally deliver | best delivery efficacy | can effectively orally deliver | can effectively orally deliver | 
